In patent EP2506856B1, “AMINOSTEROID COMPOUNDS FOR TOPIC LOCAL APPLICATION FOR SKIN-MUCOSA DECOLONISATION OF STAPHYLOCOCCUS AUREUS” (Assistance Publique Hôpitaux de Marseille, priority 2009, dated 2011):
In brackets after ≈: the same amount, converted by molar mass. Read-outs that look alike come from different tables or passages of the source. Each block holds one molecule with its values, some of them ahead of it.

Legend:
[1] = system: S. aureus ATCC 25923; test: MIC (CMI) determination on reference strain; type: cell-based, Staphylococcus aureus
Method: Les composés IIIa et IIIb (selon l'invention) avec R=-(CH2)n1-NHZ et n1=2 à 9 présentent une CMI de 2,5 à 20 µg/ml. Tableau 1 : CMI des dérivés III-a sur S. aureus ATCC 25923
(§1) Le composé III-1 présente la meilleure activité avec une CMI de 1µg/ml pour S. Aureus. Tableau 2 : CMI de la squalamine Ia et des dérivés II-1 et III-1 sur différentes souches de S. aureus.

[2] = system: Staphylococcus aureus (MRSA); test: MIC (CMI) determination on MRSA strain; type: cell-based; details: read-out: CMI
Method: as §1

[3] = system: S. aureus (souche de référence ATCC 25923); test: Comparative mouse skin colonisation model, single application of ointment, counts at 30 minutes and 1 hour; type: in vivo, souris; details: for activité de décolonisation par rapport à la squalamine et analogues: comparative ointments, 30 minutes and 1 hour
Method: On a également utilisé à fin de comparaisons une pommade à base de mupirocine (Bactroban®), d'acide fusidique (Fucidine®) ou de vancomycine et vaseline à titre de contrôle dans les mêmes conditions expérimentales. Ainsi, 10 µl d'une suspension bactérienne calibrée à 10^6 CFU/ml S. aureus a été appliquée sur la peau préalablement rasée d'une série de 6 souris sur deux quadrants différents (figure 4). Après 2 heures d'incubation et séchage, la pommade a été appliquée sur un des deux quadrants de peau contre une pommade contenant l'excipient seul sur l'autre quadrant. Les quantités de S. aureus, au temps 0 (avant application de la pommade) puis après 30 minutes et 1 heure d'application, ont été déterminées par écouvillonnage cutané et mise en culture sur milieu Chapman pour le dénombrement des colonies comme décrit précédemment.

[4] = system: différentes souches de S. aureus (y compris des souches résistantes à la méticilline (MRSA)); details: different S. aureus strains including MRSA; cited from earlier work
[5] = system: S. aureus (souche de référence ATCC 25923); test: Mouse skin colonisation model, single application of 1% ointment, counts at day 1 and day 2; type: in vivo, souris; details: figure 4, from environ 10^6 CFU/ml at J0
Method: Afin de tester l'activité in vivo des composés, on a inventé un modèle expérimental de colonisation cutanéo-muqueuse à S. aureus chez la souris. […] Brièvement, 10 µl d'une suspension bactérienne calibrée à 10^8 CFU/ml S. aureus a été appliquée sur la peau préalablement rasée des souris sur deux quadrants différents (figure 3). La colonisation par S. aureus était ensuite suivie quotidiennement pendant 2 jours par écouvillonnage cutané des souris, reprise de l'écouvillon dans 1 ml d'eau stérile et mise en culture de 100 µl sur gélose Chapman à 37°C pendant 24 heures avant énumération des colonies bactériennes.
De la même manière, 10 µl d'une suspension bactérienne calibrée à 10^8 CFU/ml S. aureus a été appliquée sur la peau préalablement rasée d'une série de 4 souris sur deux quadrants différents (figure 3). […] Les quantités de S. aureus, au temps 0 (avant application de la pommade) puis aux jours 1 et 2 (J1 et J2) après application, ont été déterminées par écouvillonnage cutané et mise en culture sur milieu Chapman pour le dénombrement des colonies comme décrit précédemment.

[6] = system: Staphylococcus; details: au bout de 24 heures; cited from earlier work
[7] = system: Staphylococcus aureus; details: 1% ointment, 2 fois/jour for 48 heures before surgery, fosses nasales; cited from earlier work
[8] = Staphylococcus aureus, ATCC25923, read-out: CMI
[9] = from environ 2.10^4 CFU/ml at t=0, single application of 1% ointment
[10] = Staphylococcus aureus, ATCC25923, dérivés III-a, R=-(CH2)n1-NH2, S. aureus ATCC 25923, read-out: CMI

Structure (SMILES): CC(C)CCC[C@@H](C)[C@H]1CC[C@H]2[C@@H]3[C@@H](NCCCCN)C=C4C[C@@H](O)CC[C@]4(C)[C@H]3CC[C@]12C [II-1, 7β-(1,4-diaminobutane)-cholest-5-ene-3β-ol]
- MIC [1, 8]: 2 µg/mL (≈ 4.23 µM)
- MIC ([2]; Staphylococcus aureus, MRSA): 2 µg/mL (≈ 4.23 µM)
- décolonisation escomptée en moins de 24 heures ([3]; expected from the 60 minute result): ≥ 99,90%
- concentration au bout de 60 minutes [3, 9]: 55 CFU/ml
- CMI [4]: 2 µg/mL

Structure (SMILES): C[C@H](NCCN)[C@H]1CC[C@H]2[C@@H]3CCC4=C[C@@H](NCCN)CC[C@]4(C)[C@H]3CC[C@]12C [III-a n1=2]
- MIC [1, 10]: 20 µg/mL (≈ 49.7 µM)

Structure (SMILES): C[C@H](NCCCN)[C@H]1CC[C@H]2[C@@H]3CCC4=C[C@@H](NCCCN)CC[C@]4(C)[C@H]3CC[C@]12C [III-a n1=3]
- MIC [1, 10]: 5 µg/mL (≈ 11.6 µM)

Structure (SMILES): C[C@H](NCCCCN)[C@H]1CC[C@H]2[C@@H]3CCC4=C[C@@H](NCCCCN)CC[C@]4(C)[C@H]3CC[C@]12C [III-a n1=4]
- MIC [1, 8]: 5 µg/mL (≈ 10.9 µM)

Structure (SMILES): C[C@H](NCCCCCN)[C@H]1CC[C@H]2[C@@H]3CCC4=C[C@@H](NCCCCCN)CC[C@]4(C)[C@H]3CC[C@]12C [III-a n1=5]
- MIC [1, 10]: 5 µg/mL (≈ 10.3 µM)

Structure (SMILES): C[C@H](NCCCCCCN)[C@H]1CC[C@H]2[C@@H]3CCC4=C[C@@H](NCCCCCCN)CC[C@]4(C)[C@H]3CC[C@]12C [III-a n1=6]
- MIC [1, 10]: 2.5 µg/mL (≈ 4.86 µM)

Structure (SMILES): C[C@H](NCCCCCCCN)[C@H]1CC[C@H]2[C@@H]3CCC4=C[C@@H](NCCCCCCCN)CC[C@]4(C)[C@H]3CC[C@]12C [III-a n1=7]
- MIC [1, 8]: 2.5 µg/mL (≈ 4.6 µM)

Structure (SMILES): C[C@H](NCCCCCCCCN)[C@H]1CC[C@H]2[C@@H]3CCC4=C[C@@H](NCCCCCCCCN)CC[C@]4(C)[C@H]3CC[C@]12C [III-a n1=8]
- MIC [1, 10]: 2.5 µg/mL (≈ 4.38 µM)

Structure (SMILES): C[C@H](NCCCCCCCCCN)[C@H]1CC[C@H]2[C@@H]3CCC4=C[C@@H](NCCCCCCCCCN)CC[C@]4(C)[C@H]3CC[C@]12C [III-a n1=9]
- MIC [1, 10]: 5 µg/mL (≈ 8.35 µM)

- MIC ([1]; ATCC25923, Staphylococcus aureus ATCC 25923, read-out: CMI): 2 µg/mL (≈ 3.18 µM)
- MIC ([2]; Staphylococcus aureus (MRSA)): 2 µg/mL (≈ 3.18 µM)
Structure (SMILES): CC(C)[C@@H](CC[C@@H](C)[C@H]1CC[C@H]2[C@@H]3[C@H](O)C[C@H]4C[C@@H](NCCCNCCCCN)CC[C@]4(C)[C@H]3CC[C@]12C)OS(=O)(=O)O [Ia, squalamine]
- concentration en bactéries Staphylococcus aureus à J1 [5]: 10^2 CFU/ml
- concentration en bactéries Staphylococcus aureus à J2 [5]: ~10^1 CFU/ml
- diminution du nombre de CFU/ml après 1 heure ([3]; 1% ointment, single application, figure 6): 4 logarithmes
- concentration à t=30 minutes [3, 9]: < 1 CFU/ml
- CMI [4]: 2 µg/mL

Structure (SMILES): CC(=O)O[C@H]1C[C@@]2(C)[C@@H](C[C@@H](O)[C@H]3[C@@]4(C)CC[C@@H](O)[C@@H](C)[C@@H]4CC[C@@]32C)/C1=C(\CCC=C(C)C)C(=O)O [acide fusidique]
- activité de décolonisation par rapport à la squalamine et analogues [3]: activité nettement moindre et moins rapide

Structure (SMILES): C/C(=C\C(=O)OCCCCCCCCC(=O)O)C[C@@H]1OC[C@H](C[C@@H]2O[C@H]2[C@@H](C)[C@H](C)O)[C@@H](O)[C@H]1O [mupirocine]
- division de la concentration de bactéries Staphylococcus [6]: 5.10^2 CFU/ml
- décolonisation des bactéries Staphylococcus aureus [7]: 99,9%
- activité de décolonisation par rapport à la squalamine et analogues [3]: activité nettement moindre et moins rapide

Structure (SMILES): CN[C@H](CC(C)C)C(=O)N[C@H]1C(=O)N[C@@H](CC(N)=O)C(=O)N[C@H]2C(=O)N[C@H]3C(=O)N[C@H](C(=O)N[C@H](C(=O)O)c4cc(O)cc(O)c4-c4cc3ccc4O)[C@H](O)c3ccc(c(Cl)c3)Oc3cc2cc(c3O[C@@H]2O[C@H](CO)[C@@H](O)[C@H](O)[C@H]2O[C@H]2C[C@](C)(N)[C@H](O)[C@H](C)O2)Oc2ccc(cc2Cl)[C@H]1O [vancomycine]
- activité de décolonisation par rapport à la squalamine et analogues [3]: activité nettement moindre et moins rapide
